Measurements reported in paper PMC5004205, “Spiro[pyrrolidine-3, 3´-oxindole] as potent anti-breast cancer compounds: Their design, synthesis, biological evaluation and cellular target identification” (Scientific Reports, 2016).

What was measured:
COS-7 cells = experiment: MTT colorimetric cell viability assay, COS-7; type: cell-based
Procedure: The MTT colorimetric viability assay was performed to evaluate the anticancer effect of compounds. 30,000 cells/100 μl of media were seeded per well and allowed to stretch and adhere overnight at 37 °C. Following day media was removed and 100 μl fresh media was added to the grown cells. Adhered cells were then treated with the compounds 5a-m dissolved in DMSO in triplicates at a standard concentration of 50 μM for 48 hours. There was one positive and one negative control along with 13 compounds. The results were measured all in triplicate in 45 wells of 96 well plate at each time point. Cytotoxic effect was evaluated using ability of live cells to cleave MTT ((3-[4, 5- dimethylthiazol-2-yl]-2, 5-diphenyl tetrazolium bromide)) (Sigma-Aldrich, St Louis, MO, USA), into formazan crystals. Post 48 hours of treatment, 10 μl of MTT (5 mg/ml in PBS) was added to the cells and incubated for 4 hours in dark at 37 °C. The violet colored crystals formed were then dissolved in 100 μl DMSO solvent (Dimethyl Sulfoxide, Sigma-Aldrich, St. Louis, MO, USA). The colorimetric assay was read by a MultiMode Plate Reader (Bio-Rad) at 595 nm. Percentage of Inhibition of drug was calculated by following formula: […]

[1] = system: MCF-7 breast cancer cells; experiment: MTT colorimetric cell viability assay, MCF-7; type: cell-based; conditions: for CTRL-TST/CTRL*100 (inhibition) MCF-7: EC50 plate
Procedure: MCF-7 cells were maintained as monolayer in 25 cm^2 culture flasks (T-25) at 37 °C in DMEM medium (GIBCO, St. Louis, USA) supplemented with high glucose, L-glutamine, pyridoxine hydrochloride, 110 mg/L sodium pyruvate, 3.7 g/L NaHCO3 and antibiotics (Penicillin-10,000 units/mL, Streptomycin −10,000 μg/mL, GIBCO, USA). Growth medium (pH 7.4) was prepared by adding 5% heat inactivated FBS (Fetal Bovine Serum, GIBCO, USA) and stored at 4 °C. The medium was changed 10–18 hrs prior to experiment, and cells were confluent at the time of experimentation. Cells were dislodged from flasks by gentle trypsinization containing 0.25% Trypsin. MCF-7 cells were regularly sub-cultured thrice a week in a seeding density of 40,000–50,000 cells/cm^2area. Cell confluency = 70%
The MTT colorimetric viability assay was performed to evaluate the anticancer effect of compounds. 30,000 cells/100 μl of media were seeded per well and allowed to stretch and adhere overnight at 37 °C. Following day media was removed and 100 μl fresh media was added to the grown cells. […] There was one positive and one negative control along with 13 compounds. The results were measured all in triplicate in 45 wells of 96 well plate at each time point. Cytotoxic effect was evaluated using ability of live cells to cleave MTT ((3-[4, 5- dimethylthiazol-2-yl]-2, 5-diphenyl tetrazolium bromide)) (Sigma-Aldrich, St Louis, MO, USA), into formazan crystals. Post 48 hours of treatment, 10 μl of MTT (5 mg/ml in PBS) was added to the cells and incubated for 4 hours in dark at 37 °C. The violet colored crystals formed were then dissolved in 100 μl DMSO solvent (Dimethyl Sulfoxide, Sigma-Aldrich, St. Louis, MO, USA). The colorimetric assay was read by a MultiMode Plate Reader (Bio-Rad) at 595 nm. Percentage of Inhibition of drug was calculated by following formula:
O.D1 O.D2 O.D3 AVG CTRL-TST CTRL-TST/CTRL*100 stdev

Question: `O=C1Nc2ccccc2C12CCNC2c1ccccc1` (stereo not drawn) [Compound 5l] was tested. Which “Inhibition of proliferation of healthy COS-7 cells” value (COS-7 cells) did it give?
Answer: did not inhibit the proliferation

Question: And the inhibition at 50 µM (COS-7 cells; Chlorocebus aethiops, COS-7, 50 μM, MTT, triplicates, read-out: Percentage inhibition COS-7)?
Answer: 15.4 ± 0.18%

Question: What about the “CTRL-TST/CTRL*100 (inhibition) MCF-7” value ([1]; concentration row 10) of the same compound?
Answer: 24.36

Question: What about the “CTRL-TST/CTRL*100 (inhibition) MCF-7” value ([1]; concentration row 20) of the same compound?
Answer: 33.4492

Question: And the “CTRL-TST/CTRL*100 (inhibition) MCF-7” value ([1]; concentration row 30)?
Answer: 48.26

Question: What about the “CTRL-TST/CTRL*100 (inhibition) MCF-7” value ([1]; concentration row 40) of the same compound?
Answer: 62.51

Question: What about the “CTRL-TST/CTRL*100 (inhibition) MCF-7” value ([1]; concentration row 50) of the same compound?
Answer: 66.98

Question: And the EC50 ([1]; Homo sapiens, MCF7, MTT, mean of three experiments)?
Answer: 3.5 µM

Question: What about the inhibition at 50 µM ([1]; Homo sapiens, MCF7, 50 μM, 48 hours, MTT, triplicates, read-out: Percentage inhibition MCF-7) of the same compound?
Answer: 60.96 ± 0.09%
